Data on eleven compounds can be found in ChEMBL document CHEMBL5512688 (J Med Chem, 2024).

Data set [1] in a line: Half life in ICR mouse at 60 mg/kg, IG measured upto 24 hrs by LC-MS/MS analysis. The format is ADME, organism-based. The following applies: in vivo, po.
A short description of data set [2]: Bioavailability in ICR mouse at 60 mg/kg, IG measured upto 24 hrs by LC-MS/MS analysis. The format is ADME, organism-based. The following applies: in vivo, po.
Data set [3] in a line: Clearance in ICR mouse at 1 mg/kg, iv measured upto 24 hrs by LC-MS/MS analysis. The format is ADME, organism-based. The conditions noted are these: in vivo.
Data set [4] can be described thus: Half life in ICR mouse at 1 mg/kg, iv measured upto 24 hrs by LC-MS/MS analysis. The format is ADME, organism-based. The following applies: in vivo.
The subject of another data set is A-427. In words: Antiproliferative activity against human A-427 cells assessed as inhibition of cell growth incubated for 72 hrs by CCK-8 assay. The following applies: A-427, 72 h. The format is functional, cell-based.
A short description of data set [5]: AUC (0 to 24 hrs) in ICR mouse at 60 mg/kg, IG measured upto 24 hrs by LC-MS/MS analysis. The conditions noted are these: in vivo, po. It is filed as ADME, organism-based.
For data set [6], the target named is T1, Wee1-like protein kinase (Homo sapiens, UniProt P30291). Put plainly: Inhibition of human Wee1 (215 to 647 residues) using polyornithine/tyrosine (4:1) as substrate incubated for 5 mins in presence of ATP by micro beta plate reader analysis.
Data set [7] in a line: Metabolic stability in human liver microsome assessed as parent compound remaining measured at 60 mins by LCMS/MS analysis. The conditions noted are these: liver microsomes, read-out: Stability. It is filed as ADME. (Microsomes from liver hold many membrane-bound enzymes, among them those of drug oxidation.)
The test system of data set [8] is LoVo. In words: Antitumor activity against human LoVo cells xenografted in female BALB/c nude mouse assessed as tumor growth inhibition at 60 mg/kg, IG administered once daily for 27 days. The conditions noted are these: po, 648 h, time 27 day, read-out: TGI. The format is functional. For orientation: A xenograft is tissue or cells of one species grown in another, often human tumour cells in immunodeficient mice.

Data set [9] addresses T1, Wee1-like protein kinase. Put plainly: Inhibition of Wee1 in human U2OS cells assessed as reduction in CDK1 phosphorylation measured for 1 hr by Western blot analysis. It is filed as cell-based. In general terms: A western blot detects proteins with antibodies after separation by electrophoresis.
Data set [10] is described as follows: Metabolic stability in mouse liver microsome assessed as parent compound remaining measured at 60 mins by LCMS/MS analysis. It is filed as ADME. The conditions noted are these: liver microsomes, read-out: Stability.
The subject of data set [11] is LoVo. Put plainly: Antiproliferative activity against human LoVo cells assessed as inhibition of cell growth incubated for 72 hrs by CCK-8 method. The format is functional, cell-based.
A short description of data set [12]: AUC (0 to 24 hrs) in ICR mouse at 1 mg/kg, iv measured upto 24 hrs by LC-MS/MS analysis. It is filed as ADME, organism-based. The following applies: in vivo.
The nature of data set [13]: Volume of distribution in ICR mouse at 1 mg/kg, iv measured upto 24 hrs by LC-MS/MS analysis. The format is ADME, organism-based. The following applies: in vivo.
Data set [14] in a line: Acute toxicity in female C57 mouse assessed as body weight loss at 2000 mg/kg, IG measured for 7 days. The conditions noted are these: in vivo, po, 168 h, time 7 day. It is filed as organism-based.
Data set [15] is described as follows: Toxicity in female BALB/c nude mouse xenografted with human LoVo cells assessed as body weight loss at 60 mg/kg, IG administered once daily for 27 days. The conditions noted are these: in vivo, po, 648 h, time 27 day. It is filed as organism-based.

T1 sequence (P30291 whole entry, the tested form may be a part): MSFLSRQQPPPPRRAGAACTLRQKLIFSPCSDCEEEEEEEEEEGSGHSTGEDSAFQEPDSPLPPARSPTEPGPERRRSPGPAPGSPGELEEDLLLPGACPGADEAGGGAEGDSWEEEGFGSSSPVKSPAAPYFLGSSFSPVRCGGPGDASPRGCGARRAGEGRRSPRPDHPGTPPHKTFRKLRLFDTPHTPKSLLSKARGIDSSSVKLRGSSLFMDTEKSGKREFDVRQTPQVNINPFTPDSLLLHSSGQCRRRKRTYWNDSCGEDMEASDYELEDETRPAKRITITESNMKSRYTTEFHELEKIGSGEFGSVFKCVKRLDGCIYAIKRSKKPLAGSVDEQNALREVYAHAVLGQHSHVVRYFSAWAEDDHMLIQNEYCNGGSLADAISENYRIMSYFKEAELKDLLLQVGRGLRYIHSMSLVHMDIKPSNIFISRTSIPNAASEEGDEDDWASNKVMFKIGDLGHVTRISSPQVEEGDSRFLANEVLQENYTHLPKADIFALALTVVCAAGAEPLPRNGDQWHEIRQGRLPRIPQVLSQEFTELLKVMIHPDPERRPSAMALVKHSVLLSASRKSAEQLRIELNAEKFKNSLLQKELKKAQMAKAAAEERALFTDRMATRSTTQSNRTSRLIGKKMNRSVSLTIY

Take `C=CCn1c(=O)c2cnc(Nc3ccc(N4[C@@H]5CC[C@H]4CN(C)C5)cc3)nc2n1-c1cccc(-c2ncccn2)n1`: the values for the half-life in [1] and in data set [4] were 2.97 h and 1.38 h, respectively. Further, the bioavailability (as a rule, the share of a dose that reaches the circulation, judged against a reference dose that is usually intravenous) in data set [2] is 91.3%. Further, the clearance (commonly a measure of how efficiently the substance is removed, as volume per time) in data set [3] is 128 mL/min/kg. The half-maximal inhibitory concentration (IC50) (usually the midpoint of a concentration-inhibition curve) in the data set with A-427 worked out at 0.115 µM; on Wee1-like protein kinase [6], 0.026 µM; at Wee1-like protein kinase [9], 0.166 µM; with LoVo [11] it was 0.243 µM. Besides, the values for the AUC(0-t) at 24 h in data set [5] and in data set [12] were 6810 ng·h/mL and 124 ng·h/mL, respectively. In addition, the remaining at 1 h came out at 64.2% in data set [7] and 82.3% in [10]. Also, in the data set on LoVo [8], the inhibition in vivo at 60 mg/kg was 53%. Also, the volume of distribution (Vd) – broadly, the apparent volume that relates the amount in the body to the concentration in plasma or blood – in [13] came to 13.4 L/kg.

Consider `C=CCn1c(=O)c2cnc(Nc3ccc(N4C[C@@H](C)N[C@@H](C)C4)cc3)nc2n1-c1cccc(-c2ncccn2)n1`, for which the half-life (in general, how long it takes for the measured level to halve) in data set [1] was 5.42 h; in data set [4], 1.72 h. In data set [2], this compound came in with a bioavailability of 87.1%. Moreover, the clearance in [3] is 427 mL/min/kg. In addition, the IC50 came out at 0.341 µM in the data set with A-427 and 0.0024 µM on Wee1-like protein kinase [6]. The area under the curve AUC(0-t) – broadly, the area under the concentration-time curve up to a stated or last time point – at 24 h in data set [5] was determined as 1850 ng·h/mL; in [12], 35.5 ng·h/mL. The remaining at 1 h stood at 51.3% in data set [7] and 83.9% in data set [10]. In [13], this compound returned a distribution volume (Vd) of 60.5 L/kg.

As to `C=CCn1c(=O)c2cnc(Nc3ccc(N4CCN(C)CC4)cc3)nc2n1-c1cccc(-c2ncc(C)cn2)n1`, the half-life in [1] was 3.9 h; in data set [4] it was 1.65 h. Besides, the bioavailability in data set [2] was determined as 83.1%. For the same compound, the clearance in data set [3] was 14.2 mL/min/kg. The half-inhibitory concentration (IC50) in the data set with A-427 is 0.476 µM; on Wee1-like protein kinase [6] it was 0.0022 µM; at Wee1-like protein kinase [9] it was 0.367 µM; with LoVo [11], 0.555 µM. Besides, the AUC(0-t) at 24 h was determined as 58100 ng·h/mL in data set [5] and 1160 ng·h/mL in data set [12]. The values for the remaining at 1 h in [7] and in [10] were 71.2% and 59.4%, respectively. Moreover, in the data set on LoVo [8], the inhibition in vivo at 60 mg/kg was determined as 72%. The compound further yielded a volume of distribution (Vd) in [13] of 1.98 L/kg.

With `C=CCn1c(=O)c2cnc(Nc3ccc(N4CCN(C)CC4)cc3)nc2n1-c1cccc(C(C)(C)O)n1` [ADAVOSERTIB], the half-life in data set [1] is 1.67 h; in data set [4], 0.59 h. The same compound displayed a bioavailability in [2] of 82.1%. Also, in [3], the clearance is 350 mL/min/kg. In data set [14], the Activity result was “Toxic”. Moreover, the values for the IC50 in the data set on A-427 and in the data set with LoVo [11] were 0.311 µM and 0.328 µM, respectively. The AUC(0-t) at 24 h in [5] stood at 2320 ng·h/mL; in data set [12], 47.1 ng·h/mL. Moreover, the remaining at 1 h amounted to 32.7% in data set [7] and 9.67% in data set [10]. Also, the inhibition in vivo at 60 mg/kg with LoVo [8] is 70%. In data set [13], the Vd came to 16.1 L/kg.

`C=CCn1c(=O)c2cnc(Nc3ccc(N4CCN(C)CC4)cc3)nc2n1-c1cccc(-c2ncccn2)n1`: the results for the half-life in data set [1] and in [4] were 1.74 h and 1.19 h, respectively. Moreover, in [2], the bioavailability worked out at 61.1%. In data set [3], this compound had a clearance of 41.2 mL/min/kg. Moreover, the IC50 was 0.399 µM with A-427, 0.0022 µM on Wee1-like protein kinase [6], 0.465 µM at Wee1-like protein kinase [9] and 0.557 µM in the data set with LoVo [11]. The values for the AUC(0-t) at 24 h in data set [5] and in data set [12] were 14800 ng·h/mL and 403 ng·h/mL, respectively. Also, the remaining at 1 h in data set [7] was determined as 79.8%; in data set [10], 63.9%. In addition, the volume of distribution (Vd) in [13] worked out at 4.24 L/kg.

For `C=CCn1c(=O)c2cnc(Nc3ccc(N4CCN(C)CC4)cc3)nc2n1-c1cccc(-c2cccnn2)n1`, the half-life in data set [1] was 8.65 h; in [4], 2.45 h. This compound also yielded a bioavailability in [2] of 41.9%. The compound also showed a clearance in data set [3] of 88.2 mL/min/kg. Moreover, the IC50 turned out to be 0.206 µM in the data set with A-427 and 0.002 µM on Wee1-like protein kinase [6]. Besides, the AUC(0-t) at 24 h in [5] came out at 4270 ng·h/mL; in [12] it was 170 ng·h/mL. Besides, the remaining at 1 h in data set [7] came out at 46.5%; in [10], 55.1%. The Vd in data set [13] was 11.7 L/kg.

Take `C=CCn1c(=O)c2cnc(Nc3ccc(N4CCC(N5CCN(C)CC5)CC4)cc3)nc2n1-c1cccc(-c2ncccn2)n1`: the half-life was 3.71 h in data set [1] and 2.39 h in data set [4]. Moreover, in data set [2], the bioavailability is 55.1%. Further, the clearance in [3] is 16.8 mL/min/kg. Also, the 50% inhibitory concentration (IC50) in the data set on A-427 came to 0.585 µM; on Wee1-like protein kinase [6] it was 0.0037 µM; at Wee1-like protein kinase [9] it was 0.914 µM; in the data set with LoVo [11], 0.714 µM. Also, the results for the area under the curve AUC(0-t) at 24 h in data set [5] and in [12] were 32400 ng·h/mL and 980 ng·h/mL, respectively. The remaining at 1 h in data set [7] was found to be 88.9%; in data set [10], 97.1%. In addition, in data set [13], the Vd was 3.72 L/kg.

Take `C=CCn1c(=O)c2cnc(Nc3ccc(N4CCN(CCO)CC4)cc3)nc2n1-c1cccc(-c2cnccn2)n1`: the half-life was 4.68 h in [1] and 1.3 h in [4]. For the same compound, the bioavailability in data set [2] worked out at 54.9%. Moreover, the clearance in data set [3] is 218 mL/min/kg. Also, the concentration for half-maximal inhibition (IC50) with A-427 is 0.105 µM; on Wee1-like protein kinase [6], 0.0029 µM. Moreover, the area under the curve AUC(0-t) at 24 h came out at 2440 ng·h/mL in [5] and 74.3 ng·h/mL in data set [12]. Also, the results for the remaining at 1 h in [7] and in data set [10] were 71.2% and 56%, respectively. Also, the Vd in data set [13] was 17 L/kg.

Turning to `C=CCn1c(=O)c2cnc(Nc3ccc(N4CCN(C)CC4)cc3)nc2n1-c1ccc2c(n1)[C@@](O)(CC)CC2` [AZENOSERTIB], in the data set on LoVo [8], the inhibition in vivo at 60 mg/kg was 80%. The IC50 on Wee1-like protein kinase [9] stood at 0.567 µM; with LoVo [11] it was 0.317 µM.

`C=CCn1c(=O)c2cnc(Nc3ccc(N4CCC(N5CCN(C)CC5)CC4)cc3)nc2n1-c1cccc(-c2cnccn2)n1` displayed a bioavailability in data set [2] of 48.5%. Moreover, the clearance in data set [3] was 23.8 mL/min/kg. In data set [4], this compound gave a half-life of 2.55 h. Also, the half-inhibitory concentration (IC50) worked out at 0.192 µM in the data set on A-427, 0.002 µM at Wee1-like protein kinase [6], 0.401 µM on Wee1-like protein kinase [9] and 0.166 µM in the data set with LoVo [11]. In addition, the area under the curve AUC(0-t) at 24 h in [5] turned out to be 20300 ng·h/mL; in [12], 699 ng·h/mL. The values for the remaining at 1 h in data set [7] and in [10] were 76.3% and 78.5%, respectively. Besides, the inhibition in vivo at 60 mg/kg in the data set with LoVo [8] stood at 58%. The compound further gave a Vd in [13] of 5.6 L/kg.

Consider `C=CCn1c(=O)c2cnc(Nc3ccc(N4CCN(CC)CC4)cc3)nc2n1-c1cccc(-c2cnccn2)n1`, for which the bioavailability in data set [2] was 46.5%. In data set [3], this compound had a clearance of 108 mL/min/kg. This compound had a half-life in data set [4] of 0.8 h. The half-maximal inhibitory concentration (IC50) with A-427 was 0.088 µM; on Wee1-like protein kinase [6] it was 0.0016 µM; at Wee1-like protein kinase [9] it was 0.341 µM; in the data set with LoVo [11], 0.092 µM. The AUC(0-t) at 24 h in data set [5] is 4200 ng·h/mL; in data set [12] it was 151 ng·h/mL. The remaining at 1 h in data set [7] was found to be 65.2%; in data set [10], 18%. In addition, the inhibition in vivo at 60 mg/kg in the data set on LoVo [8] is 69%. In addition, the Activity result in [15] was “Toxic”. This compound registered a Vd in [13] of 7.4 L/kg.
